Data: patent US7087623B2, “Thiazole and other heterocyclic ligands for mammalian dopamine, muscarinic and serotonin receptors and transporters, and methods of use thereof” (Sepracor Inc., priority 2001, dated 2006)
Like-named read-outs stand apart in the source and are kept apart here.

Columns and labels:
[1] = biological target: T1, human serotonin 5-HT2A receptor (Homo sapiens, UniProt P28223); test: Radioligand binding assay, human 5-HT2A receptors ([3H]Ketanserin)
T1 construct: expressed in transfected cells; host or cells: CHO-K1
T1 sequence (P28223 whole entry): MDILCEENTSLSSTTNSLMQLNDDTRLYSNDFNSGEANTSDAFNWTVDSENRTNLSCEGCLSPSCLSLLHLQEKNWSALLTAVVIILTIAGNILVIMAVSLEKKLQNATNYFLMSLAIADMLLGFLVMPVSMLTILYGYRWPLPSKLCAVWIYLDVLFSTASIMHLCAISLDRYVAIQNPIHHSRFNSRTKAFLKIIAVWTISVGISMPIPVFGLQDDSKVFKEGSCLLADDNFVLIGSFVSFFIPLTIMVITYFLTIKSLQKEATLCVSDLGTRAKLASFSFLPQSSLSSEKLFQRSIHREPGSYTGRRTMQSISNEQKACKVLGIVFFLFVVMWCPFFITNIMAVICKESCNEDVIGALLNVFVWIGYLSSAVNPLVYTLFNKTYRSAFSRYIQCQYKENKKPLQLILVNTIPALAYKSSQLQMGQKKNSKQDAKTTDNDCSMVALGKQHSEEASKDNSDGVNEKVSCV
Procedure: (§1) The human 5-HT2a and 5-HT2b screens were conducted according to Bonhaus, D. W. et al. Br. J. Pharmacol. 1995, 115, 622. The human 5-HT2c screen was conducted according to Wolf, W. A. et al. J. Neurochem. 1997, 69, 1449. The human 5-HT6 screen was conducted according to Monsma, F. J. et al. Mol. Pharmacol. 1993, 43, 320.
CHO-K1 cells stably transfected with a plasmid encoding the human serotonin 5-HT2A receptor were used to prepare membranes in modified Tris-HCl pH 7.7 buffer using standard techniques. […] Non-specific binding was estimated in the presence of 1 μM mianserin. […] See Bonhaus, D. W. et al. “The pharmacology and distribution of human 5-hydroxytryptamine2B (5-HT2B) receptor gene products: comparison with 5-HT2A and 5-HT2C receptors” Brit. J. Pharmacol. 115: 622–628, 1995; and Saucier, C and Albert, P. R. “Identification of an endogenous 5-hydroxytryptamine2A receptor in NIH-3T3 cells: agonist-induced down-regulation involves decreases in receptor RNA and number” J. Neurochem. 68: 1998–2011, 1997.
(§2) The human 5-HT2a and 5-HT2b screens were conducted according to Bonhaus, D. W. et al. Br. J. Pharmacol. 1995, 115, 622. The human […], W. A. et al. J. Neurochem. 1997, 69, 1449. The human 5-HT6 screen was conducted according to Monsama, F. J. et al. Mol. Pharmacol. 1993, 43, 320. The assay to human D3 receptors was conducted according to Sokoloff, P. et al. Nature 1990, 347;146. The human dopamine transporter assay was conducted according to Gu, H. et. al. J. Biol. Chem. 1994, 269 (10);7124; and Giros, B. et al. Trends. Pharmacol. Sci. 1993, 14: 43. The human muscarinic M1–M4 screens were conducted according to Buckley N. J. et al. Mol. Pharmacol. 1989, 35:469.

[2] = biological target: T2, human serotonin 5-HT2B receptor (Homo sapiens, UniProt P41595); test: Radioligand binding assay, human 5-HT2B receptors ([3H]LSD)
T2 construct: expressed in transfected cells; host or cells: CHO-K1
T2 sequence (P41595 whole entry): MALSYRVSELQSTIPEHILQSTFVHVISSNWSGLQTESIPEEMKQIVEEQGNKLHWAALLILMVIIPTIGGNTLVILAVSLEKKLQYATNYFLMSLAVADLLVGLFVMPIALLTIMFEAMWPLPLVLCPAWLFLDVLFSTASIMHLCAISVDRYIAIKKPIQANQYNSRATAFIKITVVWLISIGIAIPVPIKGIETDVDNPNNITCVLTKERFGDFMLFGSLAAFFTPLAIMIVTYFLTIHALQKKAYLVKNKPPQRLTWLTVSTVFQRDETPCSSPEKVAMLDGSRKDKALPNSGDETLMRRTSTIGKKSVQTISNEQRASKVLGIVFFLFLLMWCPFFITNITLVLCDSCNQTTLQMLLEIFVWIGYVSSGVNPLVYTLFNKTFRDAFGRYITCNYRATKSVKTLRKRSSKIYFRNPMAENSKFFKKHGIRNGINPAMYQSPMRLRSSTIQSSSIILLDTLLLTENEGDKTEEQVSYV
Procedure: This assay measures binding of [^3H]LSD to human serotonin 5-HT2B receptors. CHO-K1 cells stably transfected with a plasmid encoding the human serotonin 5-HT2B receptor were used to prepare membranes in modified Tris-HCl pH 7.4 buffer using standard techniques. […] Non-specific binding was estimated in the presence of 10 μM serotonin. Membranes were filtered and washed 3 times and the filters were counted to determine [^3H]LSD specifically bound. See Bonhaus, D. W. et al. “The pharmacology and distribution of human 5-hydroxytryptamine2B (5-HT2B) receptor gene products: comparison with 5-HT2A and 5-HT2C receptors” Brit.
The human 5-HT2b screen was conducted according to Wolf, W. A. et al. J. Neurochem.

[3] = biological target: T3, human serotonin 5-HT2C receptor (Homo sapiens, UniProt P28335); test: Radioligand binding assay, human 5-HT2C receptors ([3H]Mesulergine)
T3 construct: expressed in transfected cells; host or cells: CHO-K1
T3 sequence (P28335 33-458): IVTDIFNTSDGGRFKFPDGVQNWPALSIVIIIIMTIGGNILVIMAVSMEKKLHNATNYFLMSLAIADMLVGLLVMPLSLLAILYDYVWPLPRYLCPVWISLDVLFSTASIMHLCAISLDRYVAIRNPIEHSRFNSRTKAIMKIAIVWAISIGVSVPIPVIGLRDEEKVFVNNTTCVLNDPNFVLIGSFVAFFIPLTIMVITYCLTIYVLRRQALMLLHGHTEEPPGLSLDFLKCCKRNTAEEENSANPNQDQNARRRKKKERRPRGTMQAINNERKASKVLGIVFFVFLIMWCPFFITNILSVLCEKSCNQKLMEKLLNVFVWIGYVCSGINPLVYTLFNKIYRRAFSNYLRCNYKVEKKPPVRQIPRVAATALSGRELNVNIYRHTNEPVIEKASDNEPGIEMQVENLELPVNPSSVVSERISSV
Procedure: as §1
CHO-K1 cells stably transfected with a plasmid encoding the human serotonin 5-HT2C receptor were used to prepare membranes in modified Tris-HCl pH 7.7 buffer using standard techniques. […] Non-specific binding was estimated in the presence of 1 μM mianserin. […] See Wolf, W. A. and Schutz, J. S. “The serotonin 5-HT2C receptor is a prominent serotonin receptor in basal ganglia: evidence from functional studies on serotonin-mediated phosphoinositide hydrolysis” J. Neurochem. 69: 1449–1458, 1997.
as §2

[4] = biological target: T4, human serotonin 5-HT6 receptor (Homo sapiens, UniProt P50406); test: Radioligand binding assay, human 5-HT6 receptors ([3H]LSD); settings: read-out: IC50 (nM) 5-HT6
T4 construct: expressed in transfected cells; host or cells: HeLa/E6-7
T4 sequence (P50406 whole entry): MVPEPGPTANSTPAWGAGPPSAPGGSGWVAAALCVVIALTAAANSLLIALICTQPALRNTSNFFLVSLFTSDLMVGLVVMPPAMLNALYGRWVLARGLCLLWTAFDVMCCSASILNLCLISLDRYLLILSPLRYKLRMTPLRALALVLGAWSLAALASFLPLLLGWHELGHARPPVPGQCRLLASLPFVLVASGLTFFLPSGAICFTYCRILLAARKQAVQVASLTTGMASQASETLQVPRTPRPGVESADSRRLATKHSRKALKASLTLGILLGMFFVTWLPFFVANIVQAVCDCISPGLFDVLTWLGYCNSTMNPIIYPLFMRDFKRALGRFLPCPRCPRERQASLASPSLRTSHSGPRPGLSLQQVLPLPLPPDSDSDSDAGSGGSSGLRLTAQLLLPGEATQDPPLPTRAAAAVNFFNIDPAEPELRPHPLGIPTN
Procedure: as §1
This assay measures binding of [^3H]LSD (lysergic acid diethylamide) to human serotonin 5-HT6 receptors. HeLa/E6–7 cells stably transfected with a plasmid encoding the human serotonin 5-HT6 receptor were used to prepare membranes in modified Tris-HCl pH 7.4 buffer using standard techniques. A 30 μg aliquot of membrane was incubated with 1.5 nM [^3H]LSD for 120 minutes at 37° C. Non-specific binding was estimated in the presence of 5 μM 5-HT. Membranes were filtered and washed 3 times and the filters were counted to determine [^3H]LSD specifically bound. See Monsma, Jr., F. J. et al. “Cloning and expression of a novel serotonin receptor with high affinity for tricyclic psychotropic drugs” Mol. Pharmacol. 43: 320–327, 1993.
as §2

[5] = biological target: T5, human dopamine D3 receptor (Homo sapiens, UniProt P35462); test: Radioligand binding assay, human dopamine D3 receptors ([3H]Spiperone)
T5 construct: expressed in transfected cells; host or cells: CHO
T5 sequence (P35462 whole entry): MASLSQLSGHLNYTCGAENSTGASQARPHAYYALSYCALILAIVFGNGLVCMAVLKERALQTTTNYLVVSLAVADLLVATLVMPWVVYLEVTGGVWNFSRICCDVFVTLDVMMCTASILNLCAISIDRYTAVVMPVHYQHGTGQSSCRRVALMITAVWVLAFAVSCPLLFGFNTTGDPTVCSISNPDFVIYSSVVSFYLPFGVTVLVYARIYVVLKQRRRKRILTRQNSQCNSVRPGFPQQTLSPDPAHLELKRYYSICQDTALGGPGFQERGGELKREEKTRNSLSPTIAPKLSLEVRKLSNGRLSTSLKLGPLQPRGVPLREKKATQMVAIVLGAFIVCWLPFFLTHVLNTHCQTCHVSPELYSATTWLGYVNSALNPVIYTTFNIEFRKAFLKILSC
Procedure: The assay for binding to human D3 receptors was conducted according to Sokoloff, P. et al. Nature 1990, 347, 146.
CHO cells stably transfected with a plasmid encoding the human dopamine D3 receptor were used to prepare membranes in modified Tris-HCl pH 7.4 buffer using standard techniques. […] Non-specific binding was estimated in the presence of 25 μM S-(−)-sulpiride. […] See Sokoloff, P. et al. “Molecular cloning and characterization of a novel dopamine receptor (D3) as a target for neuroleptics” Nature 347: 146–151, 1990.
as §2

[6] = biological target: T6, human dopamine transporter (Homo sapiens, UniProt Q01959); test: Binding to human dopamine transporter ([125I]RTI-55); settings: human; Example 100 table; read-out: IC50 (nM) DAT
T6 construct: expressed in transfected cells; host or cells: CHO-K1
T6 sequence (Q01959 whole entry): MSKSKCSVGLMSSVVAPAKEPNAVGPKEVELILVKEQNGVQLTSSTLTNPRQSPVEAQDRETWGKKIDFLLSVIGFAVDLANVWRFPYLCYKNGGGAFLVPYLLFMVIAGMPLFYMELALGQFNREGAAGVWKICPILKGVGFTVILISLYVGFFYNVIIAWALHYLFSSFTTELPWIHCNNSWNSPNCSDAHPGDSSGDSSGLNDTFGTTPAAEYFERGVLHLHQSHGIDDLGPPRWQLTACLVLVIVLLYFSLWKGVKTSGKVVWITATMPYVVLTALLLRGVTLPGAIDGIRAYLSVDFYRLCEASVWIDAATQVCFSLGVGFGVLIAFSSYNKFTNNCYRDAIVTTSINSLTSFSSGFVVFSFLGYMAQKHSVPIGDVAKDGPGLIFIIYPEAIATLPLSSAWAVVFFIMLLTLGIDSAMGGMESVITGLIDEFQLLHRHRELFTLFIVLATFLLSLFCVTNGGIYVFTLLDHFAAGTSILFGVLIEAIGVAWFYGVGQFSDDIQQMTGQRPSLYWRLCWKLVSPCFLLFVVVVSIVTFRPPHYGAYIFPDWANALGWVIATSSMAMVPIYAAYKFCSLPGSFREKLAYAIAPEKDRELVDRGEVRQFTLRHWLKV
Procedure: CHO-K1 cell membranes stably transfected with a plasmid encoding the human dopamine transporter were prepared in modified Tris-HCl pH 7.4 buffer using standard techniques. […] Non-specific binding was estimated in the presence of 10 μM nomifensine. […] Trends. […]

[7] = human 5-HT2a, Example 16 table, read-out: IC50 (nM) 5-HT2a
[8] = human 5-HT2b, Example 16 table, read-out: IC50 (nM) 5-HT2b
[9] = human 5-HT2c, Example 16 table, read-out: IC50 (nM) 5-HT2c
[10] = Example 20 table, read-out: IC50 (nM) Against Human D3 Receptors
[11] = human, Example 100 table, read-out: IC50 (nM) D3
[12] = human, Example 100 table, read-out: IC50 (nM) 5-HT2A
[13] = human, Example 100 table, read-out: IC50 (nM) 5-HT2B
[14] = human, Example 100 table, read-out: IC50 (nM) 5-HT2C

IC50 ([4]; human, Example 100 table)	IC50 [5, 11]	IC50 [6]	Structure (SMILES)	IC50 [1, 7]	IC50 [2, 8]	IC50 [3, 9]	IC50 ([4]; human 5-HT6, Example 16 table)	IC50 [5, 10]	IC50 [1, 12]	IC50 [2, 13]	IC50 [3, 14]
			Clc1cccc(C2(c3csc(C4CCNCC4)n3)CCOCC2)c1 [Compound 68]	> 1000 nM	> 1000 nM	> 1000 nM	< 1000 nM	> 1000 nM			
			CN1CCC(c2nc(C3(c4cccc(Cl)c4)CCOCC3)cs2)CC1 [Compound 69]	> 1000 nM	> 1000 nM	> 1000 nM	< 1000 nM	> 1000 nM			
			CC(C)N1CCN(c2nc(C3(c4ccc(Cl)cc4)CCCCC3)cs2)CC1 [Compound 78]	> 1000 nM	< 1000 nM	> 1000 nM	> 1000 nM	< 1000 nM			
			CC(C)N1CCN(c2nc(C3(c4ccc(F)cc4)CCCCC3)cs2)CC1 [Compound 80]	> 1000 nM	< 1000 nM	< 1000 nM	> 1000 nM	< 1000 nM			
			CN1CCN(c2nc(C3(c4ccc(F)cc4)CCCCC3)cs2)CC1 [Compound 81]	> 1000 nM	< 100 nM	< 1000 nM	< 1000 nM	< 1000 nM			
< 1000 nM	> 1000 nM	< 1000 nM	Clc1ccc(C2(c3csc(NCCN4CCOCC4)n3)CCCC2)cc1 [Compound 99]								
< 1000 nM	< 1000 nM	> 1000 nM	CN1CCCC1CCNc1nc(C2(c3ccccc3F)CCCC2)cs1 (centres unmarked) [Compound 111]								
< 10 nM	> 1000 nM	< 1000 nM	CN1CCC(N(C)c2nc(C3(c4ccc(Cl)cc4)CCCC3)cs2)C1 (centres unmarked) [Compound 116]								
< 100 nM	> 1000 nM	> 1000 nM	Fc1ccccc1C1(c2csc(N3CCNCC3)n2)CCCC1 [Compound 121]								
< 1000 nM	< 1000 nM	< 1000 nM	Fc1ccccc1C1(c2csc(N3CCN(CC4CC4)CC3)n2)CCCC1 [Compound 122]								
< 100 nM	< 1000 nM		CN1CCCN(c2nc(C3(c4ccccc4F)CCCC3)cs2)CC1 [Compound 139]						< 1000 nM	< 100 nM	< 100 nM

Structure (SMILES)	IC50 ([4]; human, Example 100 table)	IC50 [5, 11]	IC50 [6]	IC50 [1, 7]	IC50 [2, 8]	IC50 [3, 9]	IC50 ([4]; human 5-HT6, Example 16 table)	IC50 [5, 10]	IC50 [1, 12]	IC50 [2, 13]	IC50 [3, 14]
Cc1c(-c2csc(N3CCN(C)CC3)n2)sc2ccc(Cl)cc12 [Compound 113]	> 1000 nM	> 1000 nM							< 1000 nM	> 1000 nM	< 1000 nM
